Experimental data published in patent US9481871B2, “Nucleic acid encoding a polpeptide having aminotransferase activity, vectors and host cells comprising the nucleic acid” (KANEKA CORPORATION, priority 2010, dated 2016).
Like-named read-outs stand apart in the source and are kept apart here.

Assays:
[1] = system: TAT; assay: Specificity 2 to amino group donor: typical substrates of ω-amino acid transaminase; assay type: biochemical, Arthrobacter sp. KNK04-25; conditions: amino group donor 14 mM, 2-ketoglutaric acid 14 mM; for activity of the polypeptide for amino group donor (in words): pH 7.0; for Relative activity: pH 7.0, 30° C., 60 minutes, (S)-1-phenethylamine = 100
Description: (§1) Each reagent was added to the enzyme solution (100 μL each) so that the final concentrations were as specified in the following composition of the substrate solution. The volume of each reaction solution was adjusted to 400 μl with 0.1 M potassium phosphate buffer (pH 7.0). After 60 minutes of reaction at 30° C., 20 μL of 3N hydrochloric acid was added to stop the reaction. Next, 80 μL of a 0.2 M aqueous sodium carbonate solution and 200 μL of an acetone solution of 3.3 mg/mL Dabsyl chloride were each added to 20 μL of the thus obtained reaction solution, followed by 10 minutes of reaction at 70° C. Acetic acid (20 μL) was added to 50 μL of the reaction solution and then the solution was stirred. The resultant was analyzed by high performance liquid chromatography under the following conditions and thus the quantity of dabsylated glutamic acid was determined. In addition, the activity of an enzyme used in this assay was adjusted so that the amount of glutamic acid generated was 2.8 mM or less.
(§2) [Composition of Substrate Solution]
[High Performance Liquid Chromatography Analysis Conditions] • Column: YMC-Pack Pro C18 RS (YMC) • Eluent: acetonitrile/45 mM acetate buffer (pH 4.1)=35/65 (volume ratio) • Flow rate: 0.9 mL/minute • Detection: 254 nm • Column temperature: 30° C.

[2] = system: TAT; assay type: biochemical, Arthrobacter sp. KNK04-25
[3] = system: TAT; assay: Specificity 3 to amino group donor with 1-benzyl-3-pyrrolidinone as receptor; assay type: biochemical, Arthrobacter sp. KNK04-25; conditions: amino group donor 290 mM, 1-benzyl-3-pyrrolidinone 29 mM; for Relative activity: pH 7.0, 30° C., 90 minutes, L-alanine = 100
Description: With the use of the cell-free extracts obtained in Example 5, the substrate specificity of TAT to an amino group donor was examined. Each reagent was added to enzyme solutions (200 μL each) so that the final concentrations were as specified in the following composition of the substrate solution. The volume of each reaction solution was adjusted to 400 μl with 0.1 M potassium phosphate buffer (pH 7.0). After 90 minutes of reaction at 30° C., 15 μL of 6N hydrochloric acid was added to stop the reaction. The thus obtained reaction solutions were analyzed by high performance liquid chromatography under the following conditions.
as §2
(§3) [High Performance Liquid Chromatography Quantitative Analysis Conditions] <Quantitative Analysis> • Column: Finepak SIL C18-T (JASCO Corporation) • Eluent: distilled water 945 mL/acetonitrile 555 mL/KH2PO4 7.5 g/SDS 2.16 g (adjusted with H3PO4 to pH 3.6) • Flow rate: 1 mL/minute • Detection: 254 nm • Column temperature: 40° C. <Analysis of Optical Purity>
Each reaction solution was treated with an appropriate amount of sodium carbonate so that it became basic, derivatized with dinitrobenzoyl chloride, and then analyzed under the following conditions. • Column: Chiralcel IA (Daicel Corporation) • Eluent: hexane/ethanol/diethylamine/acetonitrile=800/200/1/5 (volume ratio) • Flow rate: 0.8 mL/minute • Detection: 254 nm • Column temperature: 30° C.

[4] = system: TAT; assay: Specificity to amino group donor (dabsylated glutamic acid, HPLC); assay type: biochemical, Arthrobacter sp. KNK04-25; conditions: amino group donor 14 mM, 2-ketoglutaric acid 14 mM; for activity of TAT for amino group donor (in words): pH 7.0; for Relative activity: pH 7.0, 30° C., 60 minutes, benzylamine = 100
Description: The substrate specificity of TAT to amino group donors was examined using the cell-free extracts obtained in Example 5.
as §1, with “solution (100 μL, each) so” for “solution (100 μL each) so”, “C., 20 μL, of 3N” for “C., 20 μL of 3N”, “Next, 80 μL, of a” for “Next, 80 μL of a”, “and 200 μL, of an” for “and 200 μL of an”, “to 20 μL, of the” for “to 20 μL of the”, “to 50 μL, of the” for “to 50 μL of the”
as §2
[High Performance Liquid Chromatography Analysis Conditions] • Column: Cosmosil 5C8-MS (NACALAI TESQUE, INC.) • Eluent: distilled water 2000 mL/acetonitrile 500 mL/methanol 500 ml/KH2PO4 6.1 g/H3PO4 2.5 g • Flow rate: 1 mL/minute • Detection: 254 nm • Column temperature: 30° C.

[5] = Activity for 1-benzyl-3-pyrrolidinone and optical purity of generated (S)-1-benzyl-3-aminopyrrolidine; assay type: biochemical; conditions: 57 mM 1-benzyl-3-pyrrolidinone, 57 mM (S)-1-phenethylamine, pH 7.0, 30° C., 2 hours, cell-free extract
Description: (Method for Determination of Activity for 1-benzyl-3-pyrrolidinone and Method for Measurement of Optical Purity of Generated (S)-1-benzyl-3-aminopyrrolidine)
Activity to catalyze transamination by acting on optically active (S)-1-phenethylamine and 1-benzyl-3-pyrrolidinone, so as to generate acetophenone and (S)-1-benzyl-3-aminopyrrolidine was examined. Each reagent was added to each cell-free extract obtained in Example 5 so that the final concentrations were as specified in the following composition of the substrate solution. After 2 hours of reaction at 30° C., the reaction solution was analyzed by HPLC under the following conditions.
as §2
as §3, with “Chromatography” for “Chromatography Quantitative”, “Purity> […]” for “Purity>”

[6] = amino group receptor 14 mM, (S)-1-phenethylamine 14 mM, pH 7.0, 30° C., 60 minutes, 2-ketoglutaric acid = 100

NCCCCN [Putrescine·2HCl]
activity of the polypeptide for amino group donor (in words) [1]: did not exhibit activity
Relative activity [1]: 0%

CCC(=O)C(=O)O [2-ketobutyric acid]
Relative activity ([2]; […], 2-ketoglutaric acid = 100): 5%

CCOC(=O)CC(C)=O [Ethyl acetoacetate]
Relative activity ([2]; […], 2-ketoglutaric acid = 100): 2%

NCCCCC(=O)O [5-aminovaleric acid]
activity of the polypeptide for amino group donor (in words) [1]: did not exhibit activity
Relative activity [1]: 0%

Cl.NCCCC[C@H](N)C(=O)O [L-lysine·HCl]
activity of the polypeptide for amino group donor (in words) [1]: did not exhibit activity
Relative activity [1]: 0%

CC(=O)C(=O)O [Pyruvic acid]
activity of the polypeptide for amino group receptor (in words) [2]: exhibited activity
Relative activity ([2]; […], 2-ketoglutaric acid = 100): 10%

CCC(=O)CC(=O)OC [Methyl 3-oxovalerate]
Relative activity ([2]; […], 2-ketoglutaric acid = 100): 4%

CCCC(=O)C(=O)O [2-keto-n-valeric acid]
Relative activity [2, 6]: 3%

CC(=O)CCO [4-hydroxy butane-2-one]
Relative activity ([2]; […], 2-ketoglutaric acid = 100): 0%

CCCC(C)=O [2-pentanone]
Relative activity ([2]; […], 2-ketoglutaric acid = 100): 1%

O=C(Cc1ccccc1)c1ccccc1 [Benzyl phenyl ketone]
Relative activity [2, 6]: 0%

NCCCCCC(=O)O [6-aminocaproic acid]
activity of the polypeptide for amino group donor (in words) [1]: did not exhibit activity
Relative activity [1]: 0%

Cl.NCCC(N)C(=O)O (racemic) [±2,4-diaminobutyric acid·HCl]
activity of the polypeptide for amino group donor (in words) [1]: did not exhibit activity
Relative activity [1]: 0%

NCCCC(=O)O [4-aminobutyric acid]
activity of the polypeptide for amino group donor (in words) [1]: did not exhibit activity
Relative activity [1]: 0%

C[C@H](N)C(=O)O [L-alanine]
Relative activity [3]: 100%

O=CC(=O)O [Glyoxalic acid]
activity of the polypeptide for amino group receptor (in words) [2]: exhibited activity
Relative activity ([2]; […], 2-ketoglutaric acid = 100): 40%

CCC(=O)CC [3-pentanone]
Relative activity ([2]; […], 2-ketoglutaric acid = 100): 1%

O=C1CCc2ccccc2C1 [2-tetralone]
Relative activity ([2]; […], 2-ketoglutaric acid = 100): 1%

CCC(C)=O [2-butanone]
Relative activity ([2]; […], 2-ketoglutaric acid = 100): 0%

O=Cc1ccccc1 [Benzaldehyde]
Relative activity ([2]; […], 2-ketoglutaric acid = 100): 70%

O=C(O)CCC(=O)C(=O)O [2-ketoglutaric acid]
activity of the polypeptide for amino group receptor (in words) ([2]; amino group receptor 14 mM, (S)-1-phenethylamine 14 mM): high activity
Relative activity [2, 6]: 100%

N[C@@H](CCC(=O)O)C(=O)O [L-glutamic acid]
activity of TAT for amino group donor compared with L-alanine (in words) [3]: higher activity
Relative activity [3]: 1650%

NCCC(=O)O [β-alanine]
activity of the polypeptide for amino group donor (in words) [1]: did not exhibit activity
Relative activity [1]: 0%

COc1ccc2c(c1)CC(=O)CC2 [7-methoxy-2-tetralone]
Relative activity ([2]; […], 2-ketoglutaric acid = 100): 0%

CCCCC(C)=O [2-hexanone]
Relative activity ([2]; […], 2-ketoglutaric acid = 100): 4%

CCCC(=O)CC(=O)OC [Methyl 3-oxohexanoate]
Relative activity ([2]; […], 2-ketoglutaric acid = 100): 4%

N#CCC(=O)c1ccccc1 [α-cyanoacetophenone]
Relative activity ([2]; […], 2-ketoglutaric acid = 100): 0%

CCCCC(=O)CC [3-heptanone]
Relative activity ([2]; […], 2-ketoglutaric acid = 100): 5%

O=C(O)CC(=O)C(=O)O [Oxalacetic acid]
Relative activity ([2]; […], 2-ketoglutaric acid = 100): 4%

CCC(C)N (racemic) [±2-butylamine]
activity of TAT for amino group donor (in words) [4]: exhibited activity
Relative activity [4]: 7%

CC(C)=O [Acetone]
Relative activity ([2]; […], 2-ketoglutaric acid = 100): 0%

O=C1CCCc2ccccc21 [1-tetralone]
Relative activity ([2]; […], 2-ketoglutaric acid = 100): 1%

CCCCCC(C)=O [2-heptanone]
Relative activity ([2]; […], 2-ketoglutaric acid = 100): 3%

CCCC=O [Butylaldehyde]
Relative activity [2, 6]: 6%

O=C1CN2CCC1CC2 [Quinuclidinone]
Relative activity ([2]; pH 7): 0%

CCC(=O)CC#N [3-oxopentanenitrile]
Relative activity ([2]; […], 2-ketoglutaric acid = 100): 0%

NCc1ccccc1 [Benzylamine]
activity of TAT for amino group donor (in words) [4]: exhibited activity
Relative activity [4]: 100%

O=C(O)C(=O)Cc1ccccc1 [Phenylpyruvic acid]
Relative activity ([2]; […], 2-ketoglutaric acid = 100): 8%

C[C@H](N)c1ccccc1 [(S)-α-phenethylamine]
Relative activity [1]: 100%

CC(=O)c1ccccn1 [2-acetylpyridine]
Relative activity ([2]; […], 2-ketoglutaric acid = 100): 60%

O=C1CCN(Cc2ccccc2)C1 [1-benzyl-3-pyrrolidinone]
Relative activity ([2]; […], 2-ketoglutaric acid = 100): 20%

CCCCN [n-butylamine]
activity of TAT for amino group donor (in words) [4]: exhibited activity
Relative activity [4]: 4%

B1: TAT: polypeptide having transamination activity from Arthrobacter sp. KNK04-25; amino acid sequence SEQ ID NO: 1 (protein, listed as Arthrobacter sp.)
chain: MSAITLESSLATFTRRFDVSAKLTELGKEVVPGGYSRNSFNFGPHAIYVESGDGAYISTVEGHRLLDLNNNFTVNVLGHNHPSVQRTLRGSIETGVSFGNPVALETELAQLLVERIPSIERVQFSCSASESCMSAVRVARAFTGRTKIAKFEGGYHGFTDPLQVSWHPDHDGDCGPDDAPKAIPDSGGIPAEDVANVVVLTQNDGEGTERILRAHASEIACVIVELESASGGLVTLEQDYVESLRELTSELGIVLIFDETVTLRAGYQGMQGDYGVAPDLTVMGKIIGGGFPLGAVGGSAEIMSVLESGLVSISGTHHGHKIALAAGISTMRELTQGAFDRLNGMATRVMEELNDWSSQRGSSFAVYGKGISHLAYGFMREPGLSIRTHRDYWRNFDGTGTQICSLELANRGFFPVARGDFSLSLPMSDDDITAFVETTKEIVTGIES
conversion rate to (S)-1-benzyl-3-aminopyrrolidine [5]: 100%
optical purity of generated (S)-1-benzyl-3-aminopyrrolidine [5]: 100 % e.e.
